Columns and labels:
[1] = system: PSA mRNA in LNCaP cells; experiment: PSA mRNA expression level in LNCaP cells (real-time PCR); assay type: cell-based, human; details: 10^−5M, 24 hours, control (DMSO) 1.0
Procedure: (§1) 1) Extraction of Total RNA
(§2) After respectively culturing the LNCaP cells and NIH-3T3-L1 cells co-transfected in 1) to 3) above in 6-well plates, the cells were cultured for 24 hours in EMEM or RPMI 1640 containing 10% fetal calf serum treated with dextran-charcoal and a test compound (dissolved in a small amount of DMSO). Subsequently, total RNA was respectively extracted using Isogen (Wako Pure Chemical Industries).
(§3) 5 μg aliquots of each total RNA obtained in 1) above were reverse-transcribed to first strand cDNA using a Superscript III Kit (Invitrogen) and brought to a final volume of 20 μL. Real-time PCR was carried out using LightCycler FastStart DNA Master SYBR Green I (Roche Diagnostic) in order to quantify expression of PSA mRNA in LNCaP cells and UCP-1 mRNA in NIH-3T3-L1 cells. PCR was carried out under the following conditions in 20 μL of reaction mixture: 50 cycles consisting of denaturing for 3 seconds at 95° C., annealing for 10 seconds at 60° C. and elongating for 25 seconds at 72° C. β-actin mRNA was also simultaneously amplified for use as an internal standard. Real-time PCR value for each transcription product were calculated as a relative ratio to β-actin.

[2] = system: PSA promoter; experiment: PSA promoter-luciferase activity in LNCaP cells (dual-luciferase reporter); assay type: cell-based, human; details: 10^−5M, 24 hours, control (DMSO) 1.0
Procedure: Plasmid pCMV-hAR was constructed based on a method previously reported by the inventors of the present invention (J. Biol. Chem., 282, 7329-7338). In addition, reporter plasmids consisting of PGL3-PSA (human) and PGL3-UCP-1 (mouse) were also constructed based on a method previously reported by the inventors of the present invention (Diabetes, 54, 1000-1008). Furthermore, pRL-SV40 was acquired commercially.
NIH-3T30-L1 mouse preadipocytes were cultured in Dulbecco's modified Eagle's medium (Sera Laboratories) containing 10% fetal calf serum. In addition, cells of human prostate cancer cell line LNCap were cultured in RPMI 1640 medium (Sigma) containing 10% fetal calf serum. Furthermore, these two types of cell lines were obtained from the American Type Culture Collection (Manassas).
The NIH-3T3-L1 cells of 2) above were co-transfected with pCMV-hAR, pRL-SV40 and PGL3-UCP-1 (mouse) in a 24-well plate using an Effectene Transfection Kit (Qiagen) and a Fugene HD Kit (Roche Diagnostics). In addition, the LNCaP cells of 2) above were similarly co-transfected with pCMV-hAR, pRL-SV40 and PGL3-PSA (human).
4) Measurement of Effect on PSA Promoter-Luciferase Activity in LNCaP Cells
The LNCaP cells co-transfected in 3) above were cultured for 24 hours in DMEM or RPMI 1640 containing 10% fetal calf serum treated with dextran-charcoal and a test compound (dissolved in a small amount of DMSO) 24 hours after transfection. Subsequently, the activities of firefly luciferase and Renilla luciferase were assayed in a 24-well plate using the Dual-Luciferase Reporter Assay System (Promega) in accordance with the protocol of Minilumat LB9507 (Berthold Technologies). Furthermore, the value of firefly luciferase activity were normalized based on the internal Renilla control, and were presented as relative luciferase activity.

[3] = system: UCP-1 mRNA in NIH-3T3-L1 cells; experiment: UCP-1 mRNA expression level in NIH-3T3-L1 cells (real-time PCR); assay type: cell-based, mouse; details: 10^−5M, 24 hours, control (DMSO) 1.0
Procedure: as §1, §2, §3

[4] = target: T1, AR (Homo sapiens, UniProt P10275); details: previous studies of the inventors; cited from earlier work
T1 sequence (P10275 1-920): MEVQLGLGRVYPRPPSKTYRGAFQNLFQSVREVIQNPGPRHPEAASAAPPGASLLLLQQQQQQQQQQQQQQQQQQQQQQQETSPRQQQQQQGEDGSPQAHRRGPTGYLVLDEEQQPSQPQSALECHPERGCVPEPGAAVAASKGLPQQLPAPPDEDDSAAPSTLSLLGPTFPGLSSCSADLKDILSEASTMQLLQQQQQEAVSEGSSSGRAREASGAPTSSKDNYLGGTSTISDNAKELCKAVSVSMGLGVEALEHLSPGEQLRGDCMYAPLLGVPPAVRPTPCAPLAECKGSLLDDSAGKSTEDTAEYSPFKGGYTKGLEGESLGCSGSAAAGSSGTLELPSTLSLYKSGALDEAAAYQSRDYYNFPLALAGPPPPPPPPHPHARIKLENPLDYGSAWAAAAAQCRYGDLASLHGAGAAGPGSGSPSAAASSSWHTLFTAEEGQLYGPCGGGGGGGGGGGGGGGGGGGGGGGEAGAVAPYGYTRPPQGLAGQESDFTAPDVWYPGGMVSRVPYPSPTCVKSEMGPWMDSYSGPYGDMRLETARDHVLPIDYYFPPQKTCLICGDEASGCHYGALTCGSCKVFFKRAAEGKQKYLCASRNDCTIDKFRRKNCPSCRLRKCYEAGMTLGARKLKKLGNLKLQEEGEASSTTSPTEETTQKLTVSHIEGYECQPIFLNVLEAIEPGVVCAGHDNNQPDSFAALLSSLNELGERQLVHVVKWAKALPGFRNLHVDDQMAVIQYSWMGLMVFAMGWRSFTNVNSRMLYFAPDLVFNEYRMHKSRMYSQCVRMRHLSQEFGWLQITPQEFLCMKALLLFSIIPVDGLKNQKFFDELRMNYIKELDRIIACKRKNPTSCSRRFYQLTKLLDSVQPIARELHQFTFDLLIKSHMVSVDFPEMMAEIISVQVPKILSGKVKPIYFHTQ

SMILES: CO[C@H]1CC[C@@]2(C)C(=CCC3C4CCOC[C@@]4(C)CCC32)C1 (stereo partly drawn) [Compound of formula (IIIa), 16a-homo-16a-oxestra-5-ene-3β-methoxide]
- PSA mRNA (relative ratio to β-actin mRNA) [1]: 0.8
- Value of luciferase transcription activity (PSA promoter, relative luciferase activity) [2]: 0.8
- UCP-1 mRNA (relative ratio to β-actin mRNA) [3]: 1.8

SMILES: CC(C)(O)C(=O)Nc1ccc([N+](=O)[O-])c(C(F)(F)F)c1 [hydroxyflutamide]
- Formation of subnuclear AR foci (dots) (in words) [4]: do not form foci (dots)

SMILES: CC(=O)O[C@H]1CC[C@]2(C)C3CC[C@]45C(=O)O[C@H](C)[C@H]4CCC5C3CC[C@H]2C1 (stereo partly shown) [Compound of formula (IIa)]
- PSA mRNA (relative ratio to β-actin mRNA) [1]: 0.9
- Value of luciferase transcription activity (PSA promoter, relative luciferase activity) [2]: 0.8
- UCP-1 mRNA (relative ratio to β-actin mRNA) [3]: 1.4

Reference: patent US8623909B2, “Prophylactic/therapeutic agents for lifestyle-related diseases” (priority 2008, dated 2014)
